Experimental data as given in article PMC5571287 (Antimicrobial Agents and Chemotherapy, 2017).
Like-named read-outs stand apart in the source and are kept apart here.

How the values were obtained:
[1] = tested on: Hepatitis C virus GT1b replicon; assay: microbe, parasite or virus in culture; assay type: cell-based
[2] = tested on: RSVB 1276; assay: microbe, parasite or virus in culture; assay type: cell-based; details: human respiratory syncytial virus, RSVB 1276, clinical, 3 parameter curve fit
[3] = tested on: RSV A2; assay: RSV F protein cell-based ELISA in BEAS-2B cells, washout / nonwashout; details: human respiratory syncytial virus, read-out: IC50, F protein expressed on cell surfaces
Method: Approximately 72 h after BEAS-2B cells were seeded in 96-well plates (at 4 × 10^4/ml; 100 μl/well), the medium in the plates was removed and replaced with 200 μl of fresh LHC-8 medium. […] For nonwashout plates, the compounds and DMSO (1 μl/well) were applied immediately after infection. On day 3 postinfection, supernatant was aspirated and the cells were fixed with 4% formaldehyde (100 μl in PBS solution) for 20 min at room temperature (RT), washed three times with wash buffer (WB) (200 μl; PBS containing 0.05% Tween 20), and incubated with blocking buffer (100 μl; 5% bovine serum albumin [BSA] in wash buffer) for 1 h. […] Abcam plc, Cambridge, UK). After a washing, cells were incubated with a horseradish peroxidase (HRP)-conjugated anti-mouse IgG antibody (50 μl/well; 1:2,000, Abcam) for 1 h. Tetramethylbenzidine (TMB) substrate (50 μl) was then added after two washings with WB and one with PBS, and the reaction was stopped by the addition of aqueous sulfuric acid (2 N; 50 μl/well). The resultant signal was determined colorimetrically (OD at 450 nm [OD450] with a reference wavelength of 655 nm) in a microplate reader (Multiskan FC; Thermo Fisher Scientific). Cells were then washed, and 0.5% crystal violet solution ([…]) was applied for 30 min. […] The measured F protein signals (OD450 − OD655 readings) were corrected for cell number (OD595 readings) by dividing the OD450–655 by the OD595 readings.

[4] = tested on: Measles virus (Edmonton strain); assay: microbe, parasite or virus in culture; assay type: cell-based; details: MRC5
[5] = tested on: RSVA 1211; assay: microbe, parasite or virus in culture; assay type: cell-based; details: human respiratory syncytial virus, RSVA 1211, clinical
[6] = tested on: RSV A2; assay: RSV A2-infected BALB/c mice, virus load in lung homogenate; assay type: in vivo
[7] = tested on: RSV B 9320; assay: CPE assay in HEp-2 cells (resazurin); assay type: cell-based; details: human respiratory syncytial virus
[8] = biological target: human polymerase α (Homo sapiens, UniProt P09884); assay: Human polymerase inhibition in vitro (data not shown); assay type: biochemical; details: up to 1 μM
[9] = tested on: RSV A Long; details: human respiratory syncytial virus
[10] = tested on: RSV A2; details: human respiratory syncytial virus
[11] = tested on: RSV A Long; assay: CPE assay in HEp-2 cells (resazurin); assay type: cell-based; details: human respiratory syncytial virus, laboratory
[12] = intranasal 0.2 mg/ml (0.19 mg/kg)
[13] = HEp-2, read-out: PCR IC50 (0.3 Log PFUe reduction) (converted)
[14] = HEp-2, read-out: PCR IC90 (1 Log PFUe reduction) (converted)

Chain of human polymerase α (P09884 whole entry): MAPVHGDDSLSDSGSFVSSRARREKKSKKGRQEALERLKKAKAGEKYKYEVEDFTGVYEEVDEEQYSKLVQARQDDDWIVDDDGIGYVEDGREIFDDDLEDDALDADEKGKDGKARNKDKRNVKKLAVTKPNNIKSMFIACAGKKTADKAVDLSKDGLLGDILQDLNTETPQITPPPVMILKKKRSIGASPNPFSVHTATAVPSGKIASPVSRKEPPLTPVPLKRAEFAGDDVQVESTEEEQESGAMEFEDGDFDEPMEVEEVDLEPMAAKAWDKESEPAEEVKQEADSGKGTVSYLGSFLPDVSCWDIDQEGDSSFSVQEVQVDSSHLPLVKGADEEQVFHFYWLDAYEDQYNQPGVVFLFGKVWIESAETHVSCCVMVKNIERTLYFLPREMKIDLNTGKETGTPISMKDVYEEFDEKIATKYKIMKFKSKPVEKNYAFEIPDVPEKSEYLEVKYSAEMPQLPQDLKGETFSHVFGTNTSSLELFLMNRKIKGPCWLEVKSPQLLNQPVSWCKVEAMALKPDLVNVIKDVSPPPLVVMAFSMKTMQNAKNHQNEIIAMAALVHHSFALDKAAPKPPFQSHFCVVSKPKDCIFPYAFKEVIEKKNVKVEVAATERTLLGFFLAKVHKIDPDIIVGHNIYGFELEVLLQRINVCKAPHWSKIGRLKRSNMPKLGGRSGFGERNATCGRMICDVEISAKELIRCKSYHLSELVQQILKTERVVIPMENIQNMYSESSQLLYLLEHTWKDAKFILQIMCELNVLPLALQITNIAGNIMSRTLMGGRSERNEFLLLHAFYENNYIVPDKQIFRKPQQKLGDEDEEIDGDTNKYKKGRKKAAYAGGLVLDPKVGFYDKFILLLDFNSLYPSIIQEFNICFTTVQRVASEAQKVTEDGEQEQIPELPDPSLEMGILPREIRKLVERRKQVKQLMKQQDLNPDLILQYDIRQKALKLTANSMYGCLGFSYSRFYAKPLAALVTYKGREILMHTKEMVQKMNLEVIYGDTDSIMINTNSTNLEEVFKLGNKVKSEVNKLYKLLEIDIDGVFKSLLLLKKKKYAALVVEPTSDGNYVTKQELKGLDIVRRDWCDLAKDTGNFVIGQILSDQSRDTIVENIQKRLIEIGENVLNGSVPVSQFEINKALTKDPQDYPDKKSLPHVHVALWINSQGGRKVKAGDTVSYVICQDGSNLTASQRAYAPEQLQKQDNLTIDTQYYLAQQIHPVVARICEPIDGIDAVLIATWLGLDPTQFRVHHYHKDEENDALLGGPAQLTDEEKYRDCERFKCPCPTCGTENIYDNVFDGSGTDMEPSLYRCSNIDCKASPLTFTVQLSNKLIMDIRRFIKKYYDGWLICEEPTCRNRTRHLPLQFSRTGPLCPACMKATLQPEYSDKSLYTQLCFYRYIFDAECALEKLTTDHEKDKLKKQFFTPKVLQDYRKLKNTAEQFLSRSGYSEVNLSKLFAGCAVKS

Cc1cnc(N2CC3(CCOCC3)C2)c(C(=O)Nc2ccc(C(=O)N3CCc4cc(C(=O)Nc5c(C)cccc5F)sc4-c4ccccc43)cc2)c1 [PC786, N-(2-fluoro-6-methylphenyl)-6-(4-(5-methyl-2-(7-oxa-2-azaspiro[3.5]nonan-2-yl)nicotinamido)benzoyl)-5,6-dihydro-4H-benzo[b]thieno[2,3-d]azepine-2-carboxamide]
inhibition at 14 µM ([1]; GT1B, Huh-7, HCV replicon assay, at 14 μM, read-out: maximum inhibition achieved): 74% | IC50 ([1]; Huh-7, GT1b replicon): 320 nM | IC90 or IC95 ([1]; Huh-7, GT1b replicon): >14 µM | IC50 ([2]; read-out: CPE IC50): 50.6 nM | IC90 ([2]; read-out: CPE IC90): 821 nM | IC50 ([3]; 2 h exposure then 24-h washout before inoculation): 0.792 nM | IC50 ([3]; nonwashout (sustained presence of drug)): 0.129 nM | IC90 or IC95 [4]: >14 µM | IC50 ([4]; Measles morbillivirus): > 14 µM | IC50 ([5]; read-out: CPE IC50): < 0.09 nM | IC90 ([5]; read-out: CPE IC90): 1.96 nM | Virus titer of lung homogenate, interquartile range [6, 12]: 1.9–3.0 log PFU/ml | Virus titer of lung homogenate, median [6, 12]: 2.5 log PFU/ml | Virus titer of lung homogenate, geometric mean ± SD ([6]; intranasal 0.2 mg/ml (0.19 mg/kg) once daily days −1 to 3): 2.4 ± 0.59 log PFU/ml | Virus titer of lung homogenate, median ([6]; intranasal 2.0 mg/ml (1.9 mg/kg)): <0.33 (LOQ) log PFU/ml | Virus titer of lung homogenate, median ([6]; intratracheal 2.0 mg/ml (3.2 mg/kg)): <0.33 (LOQ) log PFU/ml | IC50 [7]: 29.1 nM | IC90 [7]: 64.3 nM | inhibitory effects on human polymerase α [8]: no measurable inhibitory effects | IC50 [9, 13]: 2.65 nM | IC90 [9, 14]: 3.45 nM | IC50 [10, 13]: 1.52 nM | IC90 [10, 14]: 1.69 nM | IC50 [11]: 2.46 nM | IC90 [11]: 3.25 nM
